Columns and labels:
Settings in all cases: 72 h
U2OS [1] = assay: relative viability EC50 (midpoint between 100% and the lowest measured viability); higher = less toxic
Calu-3 [2] = assay: as above
Caco-2 [3] = assay: as above
HepG2 [4] = assay: as above
Vero E6 [5] = assay: as above
U2OS [6] = assay: cell viability relative to DMSO; higher = less toxic
Calu-3 [7] = assay: as above
Caco-2 [8] = assay: as above
HepG2 [9] = assay: as above
Vero E6 [10] = assay: as above
U2OS [11] = assay: drug sensitivity score (DSS) for viability; higher = more toxic; extreme values may be limits of the assay
Calu-3 [12] = assay: as above
Caco-2 [13] = assay: as above
HepG2 [14] = assay: as above
Vero E6 [15] = assay: as above

CC(=O)OCC(=O)[C@@]1(O)CC[C@H]2[C@@H]3CCC4=CC(=O)CC[C@]4(C)[C@@]3(F)[C@@H](O)C[C@@]21C [FLUDROCORTISONE ACETATE]
relative viability EC50 (U2OS [1]): > 10000 nM
relative viability EC50 (Calu-3 [2]): > 10000 nM
relative viability EC50 (Caco-2 [3]): > 10000 nM
relative viability EC50 (HepG2 [4]): > 10000 nM
relative viability EC50 (Vero E6 [5]): > 10000 nM
cell viability (U2OS [6]; 1 nM): 98.1%
cell viability (U2OS [6]; 10 nM): 101%
cell viability (U2OS [6]; 100 nM): 95.8%
cell viability (U2OS [6]; 1000 nM): 94.7%
cell viability (U2OS [6]; 10000 nM): 93.1%
cell viability (Calu-3 [7]; 1 nM): 97.7%
cell viability (Calu-3 [7]; 10 nM): 94.4%
cell viability (Calu-3 [7]; 100 nM): 93%
cell viability (Calu-3 [7]; 1000 nM): 85.1%
cell viability (Calu-3 [7]; 10000 nM): 104%
cell viability (Caco-2 [8]; 1 nM): 102%
cell viability (Caco-2 [8]; 10 nM): 102%
cell viability (Caco-2 [8]; 100 nM): 99.5%
cell viability (Caco-2 [8]; 1000 nM): 92.8%
cell viability (Caco-2 [8]; 10000 nM): 101%
cell viability (HepG2 [9]; 1 nM): 104%
cell viability (HepG2 [9]; 10 nM): 95.9%
cell viability (HepG2 [9]; 100 nM): 104%
cell viability (HepG2 [9]; 1000 nM): 87.5%
cell viability (HepG2 [9]; 10000 nM): 95.3%
cell viability (Vero E6 [10]; 1 nM): 97.7%
cell viability (Vero E6 [10]; 10 nM): 99.8%
cell viability (Vero E6 [10]; 100 nM): 96.5%
cell viability (Vero E6 [10]; 1000 nM): 96.5%
cell viability (Vero E6 [10]; 10000 nM): 97.7%
drug sensitivity score (U2OS [11]): 0
drug sensitivity score (Calu-3 [12]): 0
drug sensitivity score (Caco-2 [13]): 0
drug sensitivity score (HepG2 [14]): 0.6
drug sensitivity score (Vero E6 [15]): 0

Nc1ccc(C(=O)O)c(O)c1 [aminosalicylate]
relative viability EC50 (U2OS [1]): > 10000 nM
relative viability EC50 (Calu-3 [2]): > 10000 nM
relative viability EC50 (Caco-2 [3]): > 10000 nM
relative viability EC50 (HepG2 [4]): > 10000 nM
relative viability EC50 (Vero E6 [5]): > 10000 nM
cell viability (U2OS [6]; 1 nM): 92.5%
cell viability (U2OS [6]; 10 nM): 101%
cell viability (U2OS [6]; 100 nM): 96.4%
cell viability (U2OS [6]; 1000 nM): 104%
cell viability (U2OS [6]; 10000 nM): 93.8%
cell viability (Calu-3 [7]; 1 nM): 96.5%
cell viability (Calu-3 [7]; 10 nM): 101%
cell viability (Calu-3 [7]; 100 nM): 107%
cell viability (Calu-3 [7]; 1000 nM): 98.9%
cell viability (Calu-3 [7]; 10000 nM): 99.3%
cell viability (Caco-2 [8]; 1 nM): 95.7%
cell viability (Caco-2 [8]; 10 nM): 115%
cell viability (Caco-2 [8]; 100 nM): 105%
cell viability (Caco-2 [8]; 1000 nM): 116%
cell viability (Caco-2 [8]; 10000 nM): 104%
cell viability (HepG2 [9]; 1 nM): 92.6%
cell viability (HepG2 [9]; 10 nM): 102%
cell viability (HepG2 [9]; 100 nM): 99.7%
cell viability (HepG2 [9]; 1000 nM): 81.1%
cell viability (HepG2 [9]; 10000 nM): 102%
cell viability (Vero E6 [10]; 1 nM): 95.5%
cell viability (Vero E6 [10]; 10 nM): 98.5%
cell viability (Vero E6 [10]; 100 nM): 104%
cell viability (Vero E6 [10]; 1000 nM): 104%
cell viability (Vero E6 [10]; 10000 nM): 95.3%
drug sensitivity score (U2OS [11]): 0
drug sensitivity score (Calu-3 [12]): 0
drug sensitivity score (Caco-2 [13]): 0
drug sensitivity score (HepG2 [14]): 0
drug sensitivity score (Vero E6 [15]): 0

CCCCC(=O)OCC(=O)[C@]1(O)Cc2c(O)c3c(c(O)c2[C@@H](O[C@H]2C[C@H](NC(=O)C(F)(F)F)[C@H](O)[C@H](C)O2)C1)C(=O)c1c(OC)cccc1C3=O [valrubicin]
relative viability EC50 (U2OS [1]): 1360 nM
relative viability EC50 (Calu-3 [2]): 769 nM
relative viability EC50 (Caco-2 [3]): 1360 nM
relative viability EC50 (HepG2 [4]): 430 nM
relative viability EC50 (Vero E6 [5]): 2280 nM
cell viability (U2OS [6]; 1 nM): 105%
cell viability (U2OS [6]; 10 nM): 96.7%
cell viability (U2OS [6]; 100 nM): 103%
cell viability (U2OS [6]; 1000 nM): 70.3%
cell viability (U2OS [6]; 10000 nM): 6.1%
cell viability (Calu-3 [7]; 1 nM): 90.7%
cell viability (Calu-3 [7]; 10 nM): 95.4%
cell viability (Calu-3 [7]; 100 nM): 89.7%
cell viability (Calu-3 [7]; 1000 nM): 60.9%
cell viability (Calu-3 [7]; 10000 nM): 26.7%
cell viability (Caco-2 [8]; 1 nM): 95.9%
cell viability (Caco-2 [8]; 10 nM): 96.8%
cell viability (Caco-2 [8]; 100 nM): 92.5%
cell viability (Caco-2 [8]; 1000 nM): 72.3%
cell viability (Caco-2 [8]; 10000 nM): 23.3%
cell viability (HepG2 [9]; 1 nM): 95.7%
cell viability (HepG2 [9]; 10 nM): 101%
cell viability (HepG2 [9]; 100 nM): 77.9%
cell viability (HepG2 [9]; 1000 nM): 33.6%
cell viability (HepG2 [9]; 10000 nM): 0.6%
cell viability (Vero E6 [10]; 1 nM): 98.6%
cell viability (Vero E6 [10]; 10 nM): 102%
cell viability (Vero E6 [10]; 100 nM): 107%
cell viability (Vero E6 [10]; 1000 nM): 92.3%
cell viability (Vero E6 [10]; 10000 nM): 29.2%
drug sensitivity score (U2OS [11]): 9.5
drug sensitivity score (Calu-3 [12]): 9
drug sensitivity score (Caco-2 [13]): 7.5
drug sensitivity score (HepG2 [14]): 15.2
drug sensitivity score (Vero E6 [15]): 5.2

Cc1cccc(-c2[nH]c(C(C)(C)C)nc2-c2ccc3nccnc3c2)n1
relative viability EC50 (U2OS [1]): > 10000 nM
relative viability EC50 (Calu-3 [2]): > 10000 nM
relative viability EC50 (Caco-2 [3]): 2140 nM
relative viability EC50 (HepG2 [4]): 1640 nM
relative viability EC50 (Vero E6 [5]): > 10000 nM
cell viability (U2OS [6]; 1 nM): 96.8%
cell viability (U2OS [6]; 10 nM): 101%
cell viability (U2OS [6]; 100 nM): 95%
cell viability (U2OS [6]; 1000 nM): 89.2%
cell viability (U2OS [6]; 10000 nM): 79%
cell viability (Calu-3 [7]; 1 nM): 106%
cell viability (Calu-3 [7]; 10 nM): 104%
cell viability (Calu-3 [7]; 100 nM): 109%
cell viability (Calu-3 [7]; 1000 nM): 102%
cell viability (Calu-3 [7]; 10000 nM): 87.3%
cell viability (Caco-2 [8]; 1 nM): 104%
cell viability (Caco-2 [8]; 10 nM): 98.1%
cell viability (Caco-2 [8]; 100 nM): 104%
cell viability (Caco-2 [8]; 1000 nM): 91.1%
cell viability (Caco-2 [8]; 10000 nM): 29.8%
cell viability (HepG2 [9]; 1 nM): 101%
cell viability (HepG2 [9]; 10 nM): 95.2%
cell viability (HepG2 [9]; 100 nM): 103%
cell viability (HepG2 [9]; 1000 nM): 80.5%
cell viability (HepG2 [9]; 10000 nM): 12.9%
cell viability (Vero E6 [10]; 1 nM): 99.3%
cell viability (Vero E6 [10]; 10 nM): 99.4%
cell viability (Vero E6 [10]; 100 nM): 104%
cell viability (Vero E6 [10]; 1000 nM): 98.1%
cell viability (Vero E6 [10]; 10000 nM): 81.6%
drug sensitivity score (U2OS [11]): 1.3
drug sensitivity score (Calu-3 [12]): 0
drug sensitivity score (Caco-2 [13]): 5.4
drug sensitivity score (HepG2 [14]): 7.9
drug sensitivity score (Vero E6 [15]): 0.7

Cc1ncc(Cl)cc1NCc1ccc(C(=O)N[C@@H](CC2CCCC2)C(=O)NC2CC2)s1
relative viability EC50 (U2OS [1]): > 10000 nM
relative viability EC50 (Calu-3 [2]): > 10000 nM
relative viability EC50 (Caco-2 [3]): > 10000 nM
relative viability EC50 (HepG2 [4]): > 10000 nM
relative viability EC50 (Vero E6 [5]): > 10000 nM
cell viability (U2OS [6]; 1 nM): 99.5%
cell viability (U2OS [6]; 10 nM): 104%
cell viability (U2OS [6]; 100 nM): 94.5%
cell viability (U2OS [6]; 1000 nM): 95%
cell viability (U2OS [6]; 10000 nM): 90.6%
cell viability (Calu-3 [7]; 1 nM): 94.7%
cell viability (Calu-3 [7]; 10 nM): 106%
cell viability (Calu-3 [7]; 100 nM): 99.8%
cell viability (Calu-3 [7]; 1000 nM): 89.7%
cell viability (Calu-3 [7]; 10000 nM): 109%
cell viability (Caco-2 [8]; 1 nM): 99.9%
cell viability (Caco-2 [8]; 10 nM): 104%
cell viability (Caco-2 [8]; 100 nM): 97.5%
cell viability (Caco-2 [8]; 1000 nM): 96.3%
cell viability (Caco-2 [8]; 10000 nM): 96.6%
cell viability (HepG2 [9]; 1 nM): 100%
cell viability (HepG2 [9]; 10 nM): 102%
cell viability (HepG2 [9]; 100 nM): 97.5%
cell viability (HepG2 [9]; 1000 nM): 89.7%
cell viability (HepG2 [9]; 10000 nM): 88.2%
cell viability (Vero E6 [10]; 1 nM): 107%
cell viability (Vero E6 [10]; 10 nM): 94.7%
cell viability (Vero E6 [10]; 100 nM): 104%
cell viability (Vero E6 [10]; 1000 nM): 98%
cell viability (Vero E6 [10]; 10000 nM): 91.6%
drug sensitivity score (U2OS [11]): 0
drug sensitivity score (Calu-3 [12]): 0
drug sensitivity score (Caco-2 [13]): 0
drug sensitivity score (HepG2 [14]): 0.4
drug sensitivity score (Vero E6 [15]): 0

C[C@@H]1COCCN1c1cc(C2(S(C)(=O)=O)CC2)nc(-c2cccc3[nH]ccc23)n1 [AZ20]
relative viability EC50 (U2OS [1]): 2660 nM
relative viability EC50 (Calu-3 [2]): 1570 nM
relative viability EC50 (Caco-2 [3]): 1710 nM
relative viability EC50 (HepG2 [4]): 973 nM
relative viability EC50 (Vero E6 [5]): 1570 nM
cell viability (U2OS [6]; 1 nM): 97.4%
cell viability (U2OS [6]; 10 nM): 101%
cell viability (U2OS [6]; 100 nM): 95.9%
cell viability (U2OS [6]; 1000 nM): 94.3%
cell viability (U2OS [6]; 10000 nM): 9.3%
cell viability (Calu-3 [7]; 1 nM): 89.4%
cell viability (Calu-3 [7]; 10 nM): 97%
cell viability (Calu-3 [7]; 100 nM): 91.8%
cell viability (Calu-3 [7]; 1000 nM): 82.3%
cell viability (Calu-3 [7]; 10000 nM): 34.6%
cell viability (Caco-2 [8]; 1 nM): 88.1%
cell viability (Caco-2 [8]; 10 nM): 96.3%
cell viability (Caco-2 [8]; 100 nM): 89.5%
cell viability (Caco-2 [8]; 1000 nM): 84.1%
cell viability (Caco-2 [8]; 10000 nM): 23.1%
cell viability (HepG2 [9]; 1 nM): 110%
cell viability (HepG2 [9]; 10 nM): 110%
cell viability (HepG2 [9]; 100 nM): 95.9%
cell viability (HepG2 [9]; 1000 nM): 65.6%
cell viability (HepG2 [9]; 10000 nM): 31.8%
cell viability (Vero E6 [10]; 1 nM): 102%
cell viability (Vero E6 [10]; 10 nM): 98.2%
cell viability (Vero E6 [10]; 100 nM): 98.5%
cell viability (Vero E6 [10]; 1000 nM): 85.4%
cell viability (Vero E6 [10]; 10000 nM): 40%
drug sensitivity score (U2OS [11]): 5.9
drug sensitivity score (Calu-3 [12]): 6
drug sensitivity score (Caco-2 [13]): 6.8
drug sensitivity score (HepG2 [14]): 7.8
drug sensitivity score (Vero E6 [15]): 5.6

From the supplement of paper PMC13380429
